Source: ChEMBL document CHEMBL3044744, “Antifeedant effects of marine halogenated monoterpenes” (J Agric Food Chem, 2002)
≈ marks a conversion by molar mass, not a printed value. Calls of active or inactive are those of the source. The calls are words filed in the database; no cut-off is given here.

Columns and labels:
Spodoptera littoralis [1] = assay: Antifeedant activity against L6 larvae of Spodoptera littoralis in Solanum tuberosum by choice test; assay type: functional, organism-based
Myzus persicae [2] = assay: Antifeedant activity against adult of Myzus persicae (green peach aphid) in Hordeum vulgare by choice test; assay type: functional, organism-based
Rhopalosiphum padi [3] = assay: Antifeedant activity against adult of Rhopalosiphum padi in Hordeum vulgare by choice test; assay type: functional, organism-based
Hordeum vulgare = assay: Phytotoxicity against Hordeum vulgare (barley) assessed as photosynthetic efficiency in leaf; assay type: organism-based; settings: in vivo
[4] = system: Leptinotarsa decemlineata; assay: Antifeedant activity against adult of Leptinotarsa decemlineata in […] by choice test; assay type: functional, organism-based
Rhopalosiphum padi [5] = assay: Antifeedant activity against adult of Rhopalosiphum padi in barley leaf assessed as salivation time at 1 ug/cm2 after 2 hr by electronic recording; assay type: functional
Rhopalosiphum padi [6] = assay: Antifeedant activity against adult of Rhopalosiphum padi in barley leaf assessed as ingestion time at 10 ug/cm2 after 2 hr by electronic recording; assay type: functional
Rhopalosiphum padi [7] = assay: Antifeedant activity against adult of Rhopalosiphum padi in barley leaf assessed as salivation time at 10 ug/cm2 after 2 hr by electronic recording; assay type: functional
Rhopalosiphum padi [8] = assay: Antifeedant activity against adult of Rhopalosiphum padi in barley leaf assessed as noningestion time at 2 ug/cm2 after 2 hr by electronic recording; assay type: functional
Rhopalosiphum padi [9] = assay: Antifeedant activity against adult of Rhopalosiphum padi in barley leaf assessed as salivation time at 2 ug/cm2 after 2 hr by electronic recording; assay type: functional
Rhopalosiphum padi [10] = assay: Antifeedant activity against adult of Rhopalosiphum padi in barley leaf assessed as ingestion time at 1 ug/cm2 after 2 hr by electronic recording; assay type: functional
Rhopalosiphum padi [11] = assay: Antifeedant activity against adult of Rhopalosiphum padi in barley leaf assessed as noningestion time at 1 ug/cm2 after 2 hr by electronic recording; assay type: functional
Rhopalosiphum padi [12] = assay: Antifeedant activity against adult of Rhopalosiphum padi in barley leaf assessed as noningestion time at 10 ug/cm2 after 2 hr by electronic recording; assay type: functional
Rhopalosiphum padi [13] = assay: Antifeedant activity against adult of Rhopalosiphum padi in barley leaf assessed as ingestion time at 2 ug/cm2 after 2 hr by electronic recording; assay type: functional
[14] = Cytotoxicity against Spodoptera frugiperda (fall armyworm) Sf9 cells after 48 hr by MTT assay; assay type: cell-based; settings: read-out: ED50
Myzus persicae [15] = assay: Antifeedant activity against adult of Myzus persicae (green peach aphid) in Hordeum vulgare assessed as total settling at 50 ug/cm2 by choice test; assay type: functional
Myzus persicae [16] = assay: Antifeedant activity against adult of Myzus persicae (green peach aphid) in Hordeum vulgare assessed as total settling at 10 ug/cm2 by choice test; assay type: functional
Rhopalosiphum padi [17] = assay: Antifeedant activity against adult of Rhopalosiphum padi in Hordeum vulgare assessed as total settling at 50 ug/cm2 by choice test; assay type: functional
[18] = Cytotoxicity against Cricetulus griseus CHO (Chinese hamster ovary) cells after 48 hr by MTT assay; assay type: cell-based; settings: read-out: ED50
Rhopalosiphum padi [19] = assay: Antifeedant activity against adult of Rhopalosiphum padi in Hordeum vulgare assessed as total settling at 10 ug/cm2 by choice test; assay type: functional
Rhopalosiphum padi [20] = assay: Insecticidal activity against adult of Rhopalosiphum padi in Hordeum vulgare assessed as mortality at 2 to 10 ug/cm2 by choice test; assay type: functional
Myzus persicae [21] = assay: Insecticidal activity against adult of Myzus persicae (green peach aphid) in Hordeum vulgare at 50 ug/cm2 by choice test; assay type: functional
Spodoptera littoralis [22] = assay: Insecticidal activity against adult of Spodoptera littoralis in Solanum tuberosum at 50 ug/cm2 by choice test; assay type: functional, organism-based
[23] = system: Leptinotarsa decemlineata; assay: Insecticidal activity against adult of Leptinotarsa decemlineata in […] at 2 ug/cm2 by choice test; assay type: functional, organism-based
[24] = system: Leptinotarsa decemlineata; assay: Insecticidal activity against adult of Leptinotarsa decemlineata assessed as mortality at 10 ug/insect treated as hemolymph injection measured up to 3 days; assay type: functional

Compound | Activity (Spodoptera littoralis [1]) | EC50 (Myzus persicae [2]) [nmol/cm2] | EC50 (Rhopalosiphum padi [3]) [nmol/cm2] | Activity (Hordeum vulgare) | EC50 [4] [nmol/cm2] | further results
CC(=O)O[C@H]1C[C@H](C(C)(Br)CCl)O[C@@]1(C)/C(Cl)=C/Br (some centres undefined) | inactive | 50 | > 100 | Non-toxic | 17.1 | –
CC(=O)O[C@H]1C[C@@H](C(C)(Br)CCl)O[C@@]1(C)/C(Cl)=C/Br (some centres undefined) | inactive | – | > 100 | Non-toxic | – | –
CC1=CCC(C(C)(Cl)CCl)OC1C(Br)Br (centres undefined) | inactive | > 100 | > 100 | Non-toxic | 8.3 | –
CC(=O)OC(C/C=C(/C)C(Cl)C(Br)Br)C(C)(Br)CCl (centres undefined) | inactive | – | 70 | Non-toxic | 70 | –
CC1=C[C@](C)(/C=C/Cl)C=CC1=O | inactive | 200 | 200 | Non-toxic | 21.2 | –
C=C1C[C@](C)(/C=C/Cl)[C@H](Cl)C[C@H]1Cl | inactive | 7.1 | 44.2 | Non-toxic | 12.9 | –
C[C@]1(/C=C/Cl)C[C@@](C)(Cl)[C@H](Cl)C[C@H]1Cl | inactive | > 100 | 63 | Non-toxic | 30.1 | –
C[C@@]1(Cl)C[C@@](C)(/C=C/Cl)[C@H](Cl)C[C@H]1Cl | inactive | 1 | 15.9 | Non-toxic | 13 | –
C[C@]1(/C=C/Cl)C[C@](Cl)(CBr)[C@@H](Br)C[C@H]1Cl | inactive | 1 | 1.2 | Non-toxic | 39.3 | Time (Rhopalosiphum padi [5]): 12 min; Time (Rhopalosiphum padi [6]): 0 min; Time (Rhopalosiphum padi [7]): 0 min; Time (Rhopalosiphum padi [8]): 60 min; Time (Rhopalosiphum padi [9]): 0 min; Time (Rhopalosiphum padi [10]): 0.1 min; Time (Rhopalosiphum padi [11]): 48 min; Time (Rhopalosiphum padi [12]): 60 min; Time (Rhopalosiphum padi [13]): 0 min
CC(C)=CCC/C(C)=C/CC/C(C)=C/CO [FARNESOL] | – | 67.1 | 7.9 | – | 107.3 | –
CC(Br)(CCl)[C@H]1C[C@H](O)[C@](C)(/C(Cl)=C/Br)O1 (some centres undefined) [FUROPLOCAMIOID A] | inactive | – | > 100 | Non-toxic | 18.9 | –
CC(Br)(CCl)[C@@H]1C[C@H](O)[C@](C)(/C(Cl)=C/Br)O1 (some centres undefined) [FUROPLOCAMIOID C] | inactive | 3.7 | 1.6 | Non-toxic | 19.1 | CC50 at 48 h [14]: 0.03 µg/mL (≈ 0.0756 µM); Activity (Myzus persicae [15]): <50%; Activity (Myzus persicae [16]): 17%; Activity (Rhopalosiphum padi [17]): 50%; CC50 at 48 h [18]: 8.09 µg/mL (≈ 20.4 µM); Activity (Rhopalosiphum padi [19]): 17%
Cl[C@H]1[C@H](Cl)[C@@H](Cl)[C@@H](Cl)[C@H](Cl)[C@H]1Cl [LINDANE] | – | – | – | – | 0.1 | mortality (Rhopalosiphum padi [20]): >50%; CC50 at 48 h [14]: 0.001 µg/mL (≈ 0.00344 µM); mortality at 50 µg/cm2 (Myzus persicae [21]): 100%; EC50 (Spodoptera littoralis [1]): 16.8 nmol/cm2; Activity (Spodoptera littoralis [22]): Active; Activity [23]: Active; mortality [24]: 100%; CC50 at 48 h [18]: > 100 µg/mL
C[C@]1(/C=C/Cl)C[C@@](C)(Cl)[C@H](Cl)C[C@@H]1Cl [MERTENSENE] | inactive | 150 | 16.6 | Non-toxic | 150 | Time (Rhopalosiphum padi [5]): 40 min; Time (Rhopalosiphum padi [6]): 0 min; Time (Rhopalosiphum padi [7]): 45 min; Time (Rhopalosiphum padi [8]): 15 min; Time (Rhopalosiphum padi [9]): 48 min; Time (Rhopalosiphum padi [10]): 3 min; Time (Rhopalosiphum padi [11]): 17 min; Time (Rhopalosiphum padi [12]): 15 min; Time (Rhopalosiphum padi [13]): 1 min
CC1=CCC(C(C)(C)Cl)OC1C(Br)Br (centres undefined) [PANTONEURINE AB] | inactive | 100 | > 100 | Non-toxic | 2.4 | –
C=C(C)[C@@H]1[C@H]2OC(=O)[C@@H]1[C@]1(O)C[C@H]3O[C@]34C(=O)O[C@H]2[C@]14C [PICROTOXININ] | – | > 100 | > 100 | – | 27.5 | –
CC(=C/C[C@@H](O)[C@](C)(Br)CCl)/C(Cl)=C/Br [PREFUROPLOCAMIOID] | inactive | 25.3 | 38.9 | Non-toxic | > 100 | –
Cc1ccc(C(C)C)c(O)c1 [THYMOL] | – | 30.9 | 23.7 | – | 3.6 | –
C[C@]1(/C=C/Cl)C[C@](Cl)(CBr)[C@@H](Cl)C[C@H]1Cl [VIOLACENE] | inactive | 5.1 | 2.5 | Non-toxic | 140 | CC50 at 48 h [14]: 0.023 µg/mL (≈ 0.0648 µM); Activity (Myzus persicae [15]): <50%; Time (Rhopalosiphum padi [5]): 8 min; Time (Rhopalosiphum padi [6]): 0 min; Time (Rhopalosiphum padi [7]): 0 min; Activity (Myzus persicae [16]): 17%; Time (Rhopalosiphum padi [8]): 59.5 min; Activity (Rhopalosiphum padi [17]): 50%; Time (Rhopalosiphum padi [9]): 0.5 min; Time (Rhopalosiphum padi [10]): 0.2 min; mortality [24]: 80%; CC50 at 48 h [18]: 29.8 µg/mL (≈ 84.1 µM); Time (Rhopalosiphum padi [11]): 51.8 min; Time (Rhopalosiphum padi [12]): 60 min; Activity (Rhopalosiphum padi [19]): 17%; Time (Rhopalosiphum padi [13]): 0 min
